Source: PubChem BioAssay (NCI)
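Test compounds were applied to cells in 96-well plates for 48 hours at 5 doses. Definition used: TGI = concentration required for complete inhibition of growth.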

Experiments:
Assay in all cases: NCI anticancer screen, dose series, 48 h
SK-MEL-5 melanoma = tested on: SK-MEL-5 melanoma
KM12 colon = tested on: KM12 colon
HT29 colon = tested on: HT29 colon
CCRF-CEM leukemia = tested on: CCRF-CEM leukemia
SR leukemia = tested on: SR leukemia
EKVX NSCLC = tested on: EKVX NSCLC
TK-10 renal = tested on: TK-10 renal
K-562 leukemia = tested on: K-562 leukemia
SN12C renal = tested on: SN12C renal
PC-3 prostate = tested on: PC-3 prostate

## CC1=C(O)C(=O)C2C(=O)C1C(C)C2c1ccccc1 (stereo unspecified)
SK-MEL-5 melanoma
  TGI: > 100 µM
KM12 colon
  TGI: > 100 µM
HT29 colon
  TGI: > 100 µM
CCRF-CEM leukemia
  TGI: > 100 µM
SR leukemia
  TGI: > 100 µM
EKVX NSCLC
  TGI: > 100 µM
TK-10 renal
  TGI: > 100 µM
K-562 leukemia
  TGI: > 100 µM

## O=C1C2CCCC2N1Cc1ccccc1 (stereo unspecified)
SK-MEL-5 melanoma
  TGI: > 100 µM
KM12 colon
  TGI: > 100 µM
SN12C renal
  TGI: > 100 µM
HT29 colon
  TGI: > 100 µM
CCRF-CEM leukemia
  TGI: > 100 µM
EKVX NSCLC
  TGI: > 100 µM
TK-10 renal
  TGI: > 100 µM
K-562 leukemia
  TGI: > 100 µM

## COc1nc2c(c(=O)[nH]1)N=C(c1ccccc1)CC(c1ccccc1)N2 (stereo unspecified)
SK-MEL-5 melanoma
  TGI: > 100 µM
KM12 colon
  TGI: > 100 µM
SN12C renal
  TGI: > 100 µM
HT29 colon
  TGI: > 100 µM
PC-3 prostate
  TGI: > 100 µM
CCRF-CEM leukemia
  TGI: > 100 µM
EKVX NSCLC
  TGI: > 100 µM
K-562 leukemia
  TGI: 60.3 µM

## C[n+]1c2ccccc2n2c3ccccc3c(NCc3ccco3)c(C#N)c21
SK-MEL-5 melanoma
  TGI: 13.7 µM
KM12 colon
  TGI: 22 µM
SN12C renal
  TGI: 9.82 µM
HT29 colon
  TGI: > 100 µM
PC-3 prostate
  TGI: 22.7 µM
EKVX NSCLC
  TGI: 13.6 µM
TK-10 renal
  TGI: 11.3 µM
K-562 leukemia
  TGI: > 21.1 µM

## CCc1cc2c(cc1C(=O)CCC(=O)O)CC1(C2)Cc2cc(CC)c(C(=O)CCC(=O)O)cc2C1
SK-MEL-5 melanoma
  TGI: > 100 µM
KM12 colon
  TGI: > 100 µM
SN12C renal
  TGI: > 100 µM
HT29 colon
  TGI: > 100 µM
PC-3 prostate
  TGI: > 100 µM
CCRF-CEM leukemia
  TGI: > 100 µM
EKVX NSCLC
  TGI: > 100 µM
TK-10 renal
  TGI: > 100 µM
K-562 leukemia
  TGI: > 100 µM

## COC(=O)[C@H](Cc1ccccc1)NC(=O)OCC1OC(n2cc(C)c(=O)[nH]c2=O)CC1N=[N+]=[N-] (stereo partly specified)
SK-MEL-5 melanoma
  TGI: > 100 µM
KM12 colon
  TGI: > 100 µM
SN12C renal
  TGI: > 100 µM
HT29 colon
  TGI: > 100 µM
PC-3 prostate
  TGI: > 100 µM
CCRF-CEM leukemia
  TGI: > 100 µM
EKVX NSCLC
  TGI: > 100 µM
TK-10 renal
  TGI: > 100 µM
K-562 leukemia
  TGI: > 100 µM

## CC(=O)OCCCCn1nncc1Cn1ccc(=O)n(Cc2cnnn2CCCCOC(C)=O)c1=O
SK-MEL-5 melanoma
  TGI: > 100 µM
KM12 colon
  TGI: > 100 µM
SN12C renal
  TGI: > 100 µM
PC-3 prostate
  TGI: > 100 µM
CCRF-CEM leukemia
  TGI: 2.61 µM
EKVX NSCLC
  TGI: > 100 µM
TK-10 renal
  TGI: > 100 µM

## CCCNC(=O)Cn1c2c(c3ccccc31)CCCC2
SK-MEL-5 melanoma
  TGI: > 100 µM
SN12C renal
  TGI: > 100 µM
HT29 colon
  TGI: > 100 µM
PC-3 prostate
  TGI: > 100 µM
CCRF-CEM leukemia
  TGI: > 100 µM
SR leukemia
  TGI: > 100 µM
EKVX NSCLC
  TGI: > 100 µM
TK-10 renal
  TGI: > 100 µM
K-562 leukemia
  TGI: > 100 µM

## O=c1c2ccccc2ncn1COCc1ccccc1
SK-MEL-5 melanoma
  TGI: > 100 µM
KM12 colon
  TGI: > 100 µM
HT29 colon
  TGI: > 100 µM
CCRF-CEM leukemia
  TGI: > 100 µM
SR leukemia
  TGI: > 100 µM
EKVX NSCLC
  TGI: > 100 µM
TK-10 renal
  TGI: > 100 µM
K-562 leukemia
  TGI: > 100 µM

## Cc1cn(CCCCOC(=O)NC(CCCN=C(N)N)C(=O)O)c(=O)[nH]c1=O (stereo unspecified)
KM12 colon
  TGI: > 100 µM
SN12C renal
  TGI: > 100 µM
HT29 colon
  TGI: > 100 µM
PC-3 prostate
  TGI: > 100 µM
CCRF-CEM leukemia
  TGI: > 100 µM
SR leukemia
  TGI: > 100 µM
EKVX NSCLC
  TGI: > 100 µM
TK-10 renal
  TGI: > 100 µM
K-562 leukemia
  TGI: > 100 µM

## CS(=O)(=O)c1ccc(C(=O)O[C@@H]2C(=O)N3CC[C@H]4OC(O)[C@@H]2[C@H]43)cc1 (stereo partly specified)
SK-MEL-5 melanoma
  TGI: > 100 µM
KM12 colon
  TGI: > 100 µM
HT29 colon
  TGI: > 100 µM
PC-3 prostate
  TGI: > 100 µM
SR leukemia
  TGI: > 100 µM
EKVX NSCLC
  TGI: > 100 µM
TK-10 renal
  TGI: > 100 µM
K-562 leukemia
  TGI: > 100 µM

## CCOC(=O)NC(=O)c1cn(CCN(CCO)C(=O)NCCCCCCNC(=O)N(CCO)CCn2cc(C(=O)NC(=O)OCC)c(=O)[nH]c2=O)c(=O)[nH]c1=O
SK-MEL-5 melanoma
  TGI: > 100 µM
KM12 colon
  TGI: > 100 µM
SN12C renal
  TGI: > 100 µM
HT29 colon
  TGI: > 100 µM
CCRF-CEM leukemia
  TGI: > 100 µM
EKVX NSCLC
  TGI: > 100 µM
K-562 leukemia
  TGI: > 100 µM

## Cc1cn(C(CO)OC(CO)CN(O)C2C3CC4CC(C3)CC2C4)c(=O)[nH]c1=O (stereo unspecified)
SK-MEL-5 melanoma
  TGI: > 100 µM
KM12 colon
  TGI: > 100 µM
SN12C renal
  TGI: > 100 µM
HT29 colon
  TGI: > 100 µM
PC-3 prostate
  TGI: > 100 µM
SR leukemia
  TGI: > 100 µM
EKVX NSCLC
  TGI: > 100 µM
TK-10 renal
  TGI: > 100 µM
K-562 leukemia
  TGI: > 100 µM

## COc1c(O)cc2c(c1O)C(=O)C(Cc1ccc(O)cc1)CO2 (stereo unspecified)
SK-MEL-5 melanoma
  TGI: > 100 µM
KM12 colon
  TGI: > 100 µM
SN12C renal
  TGI: > 100 µM
HT29 colon
  TGI: > 100 µM
PC-3 prostate
  TGI: > 100 µM
SR leukemia
  TGI: > 100 µM
EKVX NSCLC
  TGI: > 100 µM
TK-10 renal
  TGI: > 100 µM
K-562 leukemia
  TGI: > 100 µM

## CC(C)(C)n1[nH]c(=O)n(C(C)(C)C)c1=O
SK-MEL-5 melanoma
  TGI: > 100 µM
KM12 colon
  TGI: > 100 µM
SN12C renal
  TGI: > 100 µM
PC-3 prostate
  TGI: > 100 µM
SR leukemia
  TGI: > 100 µM
TK-10 renal
  TGI: > 100 µM
K-562 leukemia
  TGI: > 100 µM

## O=C([O-])c1ccccc1Nc1ccccc1C(=O)[O-].[OH3+].[Zn+2]
SK-MEL-5 melanoma
  TGI: 62.3 µM
KM12 colon
  TGI: > 100 µM
SN12C renal
  TGI: > 100 µM
HT29 colon
  TGI: > 100 µM
CCRF-CEM leukemia
  TGI: 61.6 µM
SR leukemia
  TGI: > 63.7 µM
EKVX NSCLC
  TGI: 65.8 µM
TK-10 renal
  TGI: > 100 µM
K-562 leukemia
  TGI: 88.7 µM

## COc1cc2c(c(OC)c1OC)-c1ccc(OC)c(=O)cc1C(NC(=O)CCCCCNc1ccc(N=[N+]=[N-])cc1[N+](=O)[O-])CC2 (stereo unspecified)
SK-MEL-5 melanoma
  TGI: < 0.01 µM
SN12C renal
  TGI: 11.5 µM
HT29 colon
  TGI: < 0.01 µM
PC-3 prostate
  TGI: < 0.01 µM
SR leukemia
  TGI: < 0.01 µM
EKVX NSCLC
  TGI: 0.644 µM
TK-10 renal
  TGI: 57.8 µM

## CSc1c(C(N)=S)c(N)nn1-c1ccccc1
SK-MEL-5 melanoma
  TGI: > 100 µM
KM12 colon
  TGI: > 100 µM
SN12C renal
  TGI: > 100 µM
HT29 colon
  TGI: > 100 µM
PC-3 prostate
  TGI: > 100 µM
SR leukemia
  TGI: > 100 µM
EKVX NSCLC
  TGI: > 100 µM
TK-10 renal
  TGI: > 100 µM
K-562 leukemia
  TGI: > 100 µM

## N/C(=C\c1ccc(/C=C(\NC(=O)c2ccccc2)c2nc3c([nH]2)C(=O)c2ccccc2C3=O)cc1)c1nc2c([nH]1)C(=O)c1ccccc1C2=O
SK-MEL-5 melanoma
  TGI: 31.5 µM
KM12 colon
  TGI: 29 µM
SN12C renal
  TGI: 32.8 µM
HT29 colon
  TGI: 32.4 µM
CCRF-CEM leukemia
  TGI: 57.2 µM
EKVX NSCLC
  TGI: 55.7 µM
TK-10 renal
  TGI: 51.7 µM
K-562 leukemia
  TGI: 43.5 µM

## CC1(C)CC[C@]2(C)[C@@H](O)C[C@]3(C)C(=CC[C@@H]4[C@@]5(C)CC[C@H](O)C(C)(C)[C@@H]5CC[C@]43C)[C@@H]2C1
SK-MEL-5 melanoma
  TGI: > 100 µM
KM12 colon
  TGI: > 100 µM
SN12C renal
  TGI: > 100 µM
HT29 colon
  TGI: > 100 µM
PC-3 prostate
  TGI: > 100 µM
CCRF-CEM leukemia
  TGI: > 100 µM
EKVX NSCLC
  TGI: > 100 µM
TK-10 renal
  TGI: 93.2 µM
K-562 leukemia
  TGI: > 100 µM

## COC(=O)CC(C(C(=O)OCc1ccccc1)C(C)O)N1C(=O)OCC1c1ccccc1 (stereo unspecified)
SK-MEL-5 melanoma
  TGI: > 100 µM
SN12C renal
  TGI: > 100 µM
HT29 colon
  TGI: > 100 µM
CCRF-CEM leukemia
  TGI: > 100 µM
SR leukemia
  TGI: > 100 µM
EKVX NSCLC
  TGI: > 100 µM
TK-10 renal
  TGI: > 100 µM
K-562 leukemia
  TGI: > 100 µM

## Nc1nncc2n[nH]nc12
SK-MEL-5 melanoma
  TGI: 30.7 µM
KM12 colon
  TGI: > 100 µM
SN12C renal
  TGI: > 100 µM
HT29 colon
  TGI: > 100 µM
PC-3 prostate
  TGI: > 100 µM
CCRF-CEM leukemia
  TGI: > 100 µM
SR leukemia
  TGI: > 100 µM
EKVX NSCLC
  TGI: > 100 µM
TK-10 renal
  TGI: > 100 µM

## Cc1nc(-c2cccnc2)sc1C(=O)CC(=O)C(=O)Nc1cccc(NC(=O)C(=O)CC(=O)c2sc(-c3cccnc3)nc2C)n1
SK-MEL-5 melanoma
  TGI: > 100 µM
KM12 colon
  TGI: > 100 µM
SN12C renal
  TGI: > 100 µM
HT29 colon
  TGI: > 100 µM
PC-3 prostate
  TGI: > 100 µM
CCRF-CEM leukemia
  TGI: > 100 µM
SR leukemia
  TGI: > 100 µM
EKVX NSCLC
  TGI: > 100 µM
K-562 leukemia
  TGI: > 100 µM
